Earlier results in US20100317631A1, “Gel Composition and Transcrotal Application of a Composition for the Treatment of Hypogonadism” (Dr. August Wolff GmbH & Co. Arzneimittel, priority 2000, published 2010).

[1] = intra muscular, standard dosage 250 mg

## CCCCCCC(=O)O[C@H]1CC[C@H]2[C@@H]3CCC4=CC(=O)CC[C@]4(C)[C@H]3CC[C@]12C [testosterone enanthat]
Intra muscular administration
  terminal half-time value: 4.5 days
[1]
  testosterone concentrations in serum achieved: up to 50 nmol/l
  time at which serum testosterone passes the lower limit of normal range: > 12 days
